Patent publication US11230525B2, “Organic sulfur compound, method for preparing same, and pharmaceutical composition for preventing or treating cancer or an inflammatory disease, containing same as active ingredient” (SOOKMYUNG WOMENS UNIVERSITY INDUSTRY-ACADEMIC COOPERATION …, priority 2016, dated 2022)

Key:
[1] = test system: renal cancer cell line (ACHN); assay: Cancer proliferation inhibitory activity (SRB, GI50), ACHN; assay type: cell-based; details: Homo sapiens, 48 hours
From the text: (§1) Particularly, the cancer proliferation inhibitory activity of the compounds of comparative examples (Ajoene and the compounds isosteric to Ajoene wherein R1 is allyl or benzyl) and the compounds of examples of the present invention (the compounds not isosteric to Ajoene wherein R^1 is phenyl) was investigated in human cancer cell lines (renal cancer cell line (ACHN), breast cancer cell line (MDA-MB-231), colorectal cancer cell line (HCT-15), prostate cancer cell line (PC-3), gastric cancer cell line (NUGC-3) and lung cancer cell line (NCl-H23)).
(§2) At this time, the cancer cell lines (renal cancer cell line (ACHN), breast cancer cell line (MDA-MB-231), colorectal cancer cell line (HCT-15), prostate cancer cell line (PC-3), gastric cancer cell line (NUGC-3) and lung cancer cell line (NCl-H23)) above were purchased from American Type Culture Collection (Manassas, Va., USA). Cells were cultured in RPMI 1640 supplemented with 10% fetal bovine serum, which were maintained 37° C. under 5% CO2 wet atmosphere. The cells were distributed in a 96-well plate, which was not treated (treated only with 0.1% DMSO) or treated with the compounds of examples of the present (0.1 μM to 10 μM). 48 hours later, the cells were fixed in 50% trichloroacetic acid, followed by staining with 1% acetic acid containing 0.4% sulphorodamine B dissolved therein. The non-conjugated dye was removed by washing with 1% acetic acid, and the protein conjugated dye was extracted with 10 mM Tris base (pH 10.5). Then, OD540 was measured with VersaMax microplate reader (Molecular devices, Sunnyvale, Calif., USA). GI50 was calculated by using GraphPad Prism software (GraphPad Software, Inc., San Diego, Calif., USA).
(§3) Based on the results obtained in experimental example 1-1 above, the derivatives wherein R^1 is phenyl were additionally synthesized. The cancer proliferation inhibitory activity of the derivatives was evaluated by the same manner as described in experimental example 1-1.

[2] = test system: colorectal cancer cell line (HCT-15); assay: Cancer proliferation inhibitory activity (SRB, GI50), HCT-15; assay type: cell-based; details: Homo sapiens, 48 hours
From the text: as §1, §2, §3

[3] = test system: breast cancer cell line (MDA-MB-231); assay: Cancer proliferation inhibitory activity (SRB, GI50), MDA-MB-231; assay type: cell-based; details: Homo sapiens, 48 hours
From the text: as §1, §2, §3

[4] = test system: lung cancer cell line (NCl-H23); assay: Cancer proliferation inhibitory activity (SRB, GI50), NCI-H23; assay type: cell-based; details: Homo sapiens, 48 hours
From the text: as §1, §2, §3

[5] = test system: prostate cancer cell line (PC-3); assay: Cancer proliferation inhibitory activity (SRB, GI50), PC-3; assay type: cell-based; details: Homo sapiens, 48 hours
From the text: as §1, §2, §3

HDAC 8 = molecular target: T1, HDAC 8 (Homo sapiens, UniProt Q9BY41); assay: HDAC enzyme fluorescence assay, HDAC 8; assay type: biochemical; parameters: Inhibitory activity (%) HDAC 8: concentration or dose not given beside the values; details: for Inhibitory activity (%) HDAC 8: (HDAC inhibitory activity of example compound/HDAC inhibitory activity of SAHA) × 100
T1 sequence (Q9BY41 1-377): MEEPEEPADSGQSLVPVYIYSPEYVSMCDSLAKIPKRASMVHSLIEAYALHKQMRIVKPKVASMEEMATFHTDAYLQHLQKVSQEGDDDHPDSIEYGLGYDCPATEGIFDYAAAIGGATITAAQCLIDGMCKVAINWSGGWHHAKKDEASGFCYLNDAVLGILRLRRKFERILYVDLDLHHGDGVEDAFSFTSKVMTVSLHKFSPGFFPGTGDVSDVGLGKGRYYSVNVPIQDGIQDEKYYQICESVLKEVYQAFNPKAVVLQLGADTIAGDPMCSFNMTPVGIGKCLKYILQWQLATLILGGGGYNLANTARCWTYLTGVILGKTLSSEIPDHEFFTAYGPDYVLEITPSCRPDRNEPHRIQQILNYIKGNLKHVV
Description: Particularly, HDAC enzyme analysis was performed based on a uniform fluorescence emission assay. First, the compounds of examples of the present invention or comparative example 1 were diluted at different concentrations, which were treated to the analysis buffer containing 25 mM HEPES (pH 8.0), 137 mM NaCl, 1 mM MgCl2 and 2.7 mM KCL, followed by culture of the recombinant HDAC enzyme. 10 minutes later, Boc-Lys(acetyl)-AMC, the fluorescence inducing substrate, was added thereto, followed by further culture at 37° C. At this time, the concentration of the fluorescence inducing substrate and the culture time were adjusted according to the isotypes of the HDAC enzyme. The reaction was terminated by treating trypsin at room temperature for 20 minutes. The fluorescence intensity was measured using a fluorescence analyzer at an excitation wavelength of 380 nm and an emission wavelength of 460 nm, respectively. The inhibition rate was calculated from the measured fluorescence intensity of each well with comparing to that of the control well. IC50 of the compound was calculated by analyzing the dose-reaction inhibition curve.
The HDAC 8 inhibitory activity was presented as percentage of relative activity by the inhibitory activity of SAHA (Vorinostat) used as a reference compound.

[6] = test system: gastric cancer cell line (NUGC-3); assay: Cancer proliferation inhibitory activity (SRB, GI50), NUGC-3; assay type: cell-based; details: Homo sapiens, 48 hours
From the text: as §1, §2, §3

Row | Structure (SMILES) | GI50 [1] [nM] | GI50 [2] [nM] | GI50 [3] [nM] | GI50 [4] [nM] | GI50 [5] [nM] | Inhibitory activity (%) HDAC 8 (HDAC 8) [%] | GI50 [6] [nM] | IC50 (HDAC 8; recombinant HDAC enzyme, Boc-Lys(acetyl)-AMC, read-out: IC50 HDAC 8) [nM]
1 | COc1ccc([S+]([O-])C/C=C\SSCc2ccc(Cl)cc2)cc1 (stereo not shown) [Example 36, (Z)-1-(4-chlorobenzyl)-2-(3-(4-methoxyphenylsulfinyl)prop-1-enyl)disulfane] | 2410 | 1620 | 1780 | 2190 | 2280 | 98.7 | 2840 | 
2 | COc1ccc(CSS/C=C\C[S+]([O-])c2ccccc2)cc1 (stereo not shown) [Example 10, (Z)-1-(4-methoxybenzyl)-2-(3-(phenylsulfinyl)prop-1-enyl)disulfane] | 2720 | 2330 | 3580 | 2030 | 4240 | 73.8 | 1660 | 
3 | CCCSS/C=C/C[S+]([O-])c1cccc(OC)c1 (stereo not shown) [Example 17, (E)-1-(3-(3-methoxyphenylsulfinyl)prop-1-enyl)-2-propyldisulfane] | 1570 | 2170 | 1380 | 1580 | 1990 | 78.4 | 1590 | 
4 | COc1cccc([S+]([O-])C/C=C/SSCc2ccc(Cl)cc2)c1 (stereo not shown) [Example 23, (E)-1-(4-chlorobenzyl)-2-(3-(3-methoxyphenylsulfinyl)prop-1-enyl)disulfane] | 5470 | 4370 | 3120 | 4850 | 3760 | 72.6 | 5920 | 
5 | [O-][S+](C/C=C/SSCc1ccc(F)cc1)c1ccccc1 (stereo not shown) [Example 7, (E)-1-(4-fluorobenzyl)-2-(3-(phenylsulfinyl)prop-1-enyl)disulfane] | 7110 | 10400 | 3240 | 7690 | 3890 | 37.1 | 6840 | 
6 | COc1ccc([S+]([O-])C/C=C\SSCc2ccc(Cl)c(Cl)c2)cc1 (stereo not shown) [Example 38, (Z)-1-(3,4-dichlorobenzyl)-2-(3-(4-methoxyphenylsulfinyl)prop-1-enyl)disulfane] | 5190 | 7180 | 2070 | 3330 | 4360 | 55.5 | 4610 | 
7 | C=CCSS/C=C/C[S+]([O-])c1ccc(OC)cc1 (stereo not shown) [Example 27, (E)-1-allyl-2-(3-(4-methoxyphenylsulfinyl)prop-1-enyl)disulfane] | 3860 | 6610 | 5620 | 3910 | 4380 | 39.8 | 4620 | 
8 | CCCSS/C=C/C[S+]([O-])c1ccccc1 (stereo not shown) [Example 3, (E)-1-(3-(phenylsulfinyl)prop-1-enyl)-2-propyldisulfane] | 3900 | 2640 | 2150 | 2800 | 4740 | 43.8 | 2930 | 
9 | COc1cccc([S+]([O-])C/C=C/SSCc2ccccc2)c1 (stereo not shown) [Example 19, (E)-1-benzyl-2-(3-(3-methoxyphenylsulfinyl)prop-1-enyl)disulfane] | 2500 | 2080 | 1770 | 2120 | 1440 | 88.1 | 2340 | 
10 | [O-][S+](C/C=C/SSCc1ccc(Cl)cc1)c1ccccc1 (stereo not shown) [Example 11, (E)-1-(4-chlorobenzyl)-2-(3-(phenylsulfinyl)prop-1-enyl)disulfane] | 1220 | 1670 | 1560 | 2000 | 1300 | 74.4 | 1160 | 
11 | C=CCSS/C=C\C[S+]([O-])c1ccc(OC)cc1 (stereo not shown) [Example 28, (Z)-1-allyl-2-(3-(4-methoxyphenylsulfinyl)prop-1-enyl)disulfane] | 5060 | 3940 | 7280 | 4240 | 4470 | 73.5 | 3770 | 
12 | COc1ccc([S+]([O-])C/C=C\SSCc2ccc(F)cc2)cc1 (stereo not shown) [Example 34, (Z)-1-(4-fluorobenzyl)-2-(3-(4-methoxyphenylsulfinyl)prop-1-enyl)disulfane] | 1340 | 1450 | 1090 | 1490 | 1350 | 68.1 | 2650 | 
13 | CCCSS/C=C\C[S+]([O-])c1ccc(OC)cc1 (stereo not shown) [Example 30, (Z)-1-(3-(4-methoxyphenylsulfinyl)prop-1-enyl)-2-propyldisulfane] | 3230 | 2430 | 2140 | 3580 | 3020 | 52.9 | 2360 | 290
14 | COc1ccc([S+]([O-])C/C=C/SSCc2ccc(Cl)cc2)cc1 (stereo not shown) [Example 35, (E)-1-(4-chlorobenzyl)-2-(3-(4-methoxyphenylsulfinyl)prop-1-enyl)disulfane] | 880 | 880 | 1160 | 970 | 1050 | 107.2 | 1080 | 
15 | COc1cccc([S+]([O-])C/C=C\SSCc2ccc(F)cc2)c1 (stereo not shown) [Example 22, (Z)-1-(4-fluorobenzyl)-2-(3-(3-methoxyphenylsulfinyl)prop-1-enyl)disulfane] | 3850 | 3010 | 4410 | 2710 | 3040 | 122.9 | 3670 | 
16 | COc1cccc([S+]([O-])C/C=C\SSCc2ccc(Cl)c(Cl)c2)c1 (stereo not shown) [Example 26, (Z)-1-(3,4-dichlorobenzyl)-2-(3-(3-methoxyphenylsulfinyl)prop-1-enyl)disulfane] | > 10000 | 7250 | > 10000 | > 10000 | 6670 | 161.9 | 3220 | 
17 | [O-][S+](C/C=C\SSCc1ccc(Cl)cc1)c1ccccc1 (stereo not shown) [Example 12, (Z)-1-(4-chlorobenzyl)-2-(3-(phenylsulfinyl)prop-1-enyl)disulfane] | 2950 | 5480 | 2260 | 3510 | 4990 | 105.4 | 3240 | 
18 | COc1cccc([S+]([O-])C/C=C/SSCc2ccc(F)cc2)c1 (stereo not shown) [Example 21, (E)-1-(4-fluorobenzyl)-2-(3-(3-methoxyphenylsulfinyl)prop-1-enyl)disulfane] | 2460 | 1750 | 2020 | 2120 | 1970 | 109.2 | 1560 | 
